From patent US4560758A, “Process for preparing pyrrolo[1,2-a]imidazoles and imidazo[1,2-a]pyridines” (Pennwalt Corporation, priority 1984, dated 1985)
Counter-ions that a name gives are not always drawn.

Experiments:
murine marcophage cells = assay: Chemotaxis assay (migration of macrophages toward complement-derived chemoattractant); type: cell-based
Experimental: In this assay, done according to the methods of R. Synderman et al., Infection & Immunity, 11, p. 488-492 (1975) and M. S. Meltzer et al., J. Natl. Cancer Inst., 54, p. 795-799 (1975), the ability of a drug substance to influence the movement of cells responding to a stimulus induced by some foreign substance or injury is determined. This is vitro assay utilizes a chemoattractant, derived from a component of the immunological system known as complement, to induce murine marcophage cells to migrate toward it. The effect of a drug substance on such movements can be measured by counting the cells. […] For example, the compound of Example 15 stimulates migration by 35.6% at 10^-8 molar concentration and is thus immunoenhancing.

[1] = system: antibody secreting cells in the spleen; assay: Kennedy Plaque Assay (humoral immune system depressed by 6-mercaptopurine; number of plaques); type: in vivo; settings: for change in vivo at 6.25 mg/kg: ip, 60 mg/Kg of 6 MP plus 6.25 mg/Kg (i.p.) of compound, read-out: Percent Restoration (+) or Suppression (-); for percent change from control (i.e., without 6MP): without 6MP treatment, 6.25 mg/Kg (i.p.) of compound
Experimental: In this assay, in which the in vitro model used was the Kennedy modification of the Jerne (or plaque) technique (J. C. Kennedy et al, Immunol., 20, p. 253 (1971)), the animal's humoral immune system is depressed artificially by the known immunosuppressant drug, 6-mercaptopurine (6-MP), and then the ability of a drug to either suppress it further or restore it towards normal is evaluated. The change in the number of plaques, which is a direct correlate of the change in the number of antibody secreting cells in the spleen, is used to measure this effect. For example, the compound of Example 11 results in greater than 100% restoration of the number of plaques and thus causes an immunoenhancement of the humoral system. In contrast, the compound of Example 28 results in about 24% further suppression of the number of plaques and thus behaves as an immunosuppressant.
of 6 MP plus 6.25 mg/Kg (i.p.)
^1 without 6MP treatment
^2 percent change from control (i.e., without 6MP)

mouse hepatitis virus = assay: Antiviral assay - hepatitis in mice; type: in vivo; settings: once daily for 3 days; for Mean Liver Score: day 4, 0 (normal) to 4 (extreme discoloration); for Percent Survival: day 21
Experimental: Female mice weighing approximately 21-24 grams were inoculated with 0.1 ml of a mouse liver suspension containing mouse hepatitis virus, which liver suspension is at a dilution of 10^-5.5. Starting twenty-four hours post-virus inoculation, the animals were intraperitoneally ("i.p.") or orally administered the test compound(s) once daily for 3 days. On day 4, one third to one half of each group of mice were sacrificed and their liver removed for examination. Each liver was scored and assigned a number from 0 (normal liver) to 4 (extreme discoloration). The mean liver score per group was computed. The number of animals surviving until termination of the study (day 21) was also recorded. Anti-hepatitis activity is evidenced by increased survivor numbers and improved liver scores.

[2] = system: carrageenan-induced paw edemas; assay: Anti-inflammatory assay, carrageenan-induced paw edema; type: in vivo, Male, Sprague-Dawley rats; settings: 50 mg/Kg p.o.; dosed two hours before carrageenan
Experimental: The anti-inflammatory properties of various compounds of this invention were determined by carrageenan-induced paw edemas of test rats. Male, Sprague-Dawley rats (Blue Spruce Farm) were ordered at 125-140 g, housed for one week, and allowed food and water ad libitum. At the time of the experiments, only rats weighing 160-200 g were used.
All compounds were dissolved or suspended in a 0.5% water solution of Methocel and orally administered to groups of six rats each. Control rats received Methocel only. Two hours later (unless otherwise stated), paw edema was induced by subcutaneous injection into the plantar surface of the right hind paw of 0.1 ml of a 1.0% homogenized suspension of carrageenan.
Immediately, the volume of the paw was measured by immersing it in mercury to above the lateral mateolus. The mercury in a glass cylinder 25 mm in diameter and 60 mm deep was connected at the bottom on the cylinder by a column of water to a Statham transducer (model P23BB), range 0-5 cm of mercury pressure. The volume was recorded electronically on a Beckman recorder, R511. Three hours later, the inflamed paw volume was measured again, and the change in volume was recorded for each group. The percent inhibition of edema was calculated using the control group paw volume as 100% edema, i.e., as (the change in edema in the control group less the change in edema in the test group) times 100 divided by the change in edema in the control group.

[3] = 12.5 mg/Kg i.p., control 2.6 (Examples 11, 16, 23), 3.4 (25, 26)
[4] = 12.5 mg/Kg i.p., control 5% (Examples 11, 16, 23), 6% (25, 26)
[5] = 25 mg/Kg i.p., control 2.6 (Examples 11, 23), 3.4 (25, 26)
[6] = 25 mg/Kg i.p., control 5% (Examples 11, 23), 6% (25, 26)

Compound: CSC1CCN2CC(c3ccccc3)N=C12 (stereo not drawn) [Example 1, 2,5,6,7-Tetrahydro-2-phenyl-7-methylthio-3H-pyrrolo[1,2-a]imidazole hydrochloride]
- Percent Inhibition (-) or Enhancement (+) of migration (murine marcophage cells; 10^-5 m): -25.4%
- Percent Inhibition (-) or Enhancement (+) of migration (murine marcophage cells; 10^-7 m): -8.8%
- Percent Inhibition (-) or Enhancement (+) of migration (murine marcophage cells; 10^-8 m): -17.5%
- Percent Inhibition (-) or Enhancement (+) of migration (murine marcophage cells; 10^-9 m): -29.7%
- Percent Inhibition (-) or Enhancement (+) of migration (murine marcophage cells; 10^-10 m): -68.2%
- Percent Inhibition (-) or Enhancement (+) of migration (murine marcophage cells; 10^-11 m): -36.8%
- inhibition at 0.0001 µM (murine marcophage cells; Mus musculus, Macrophage, 10^-10 molar concentration, read-out: inhibits migration): 68.2%
- change in vivo at 6.25 mg/kg [1]: 72%

Compound: c1ccc(SC2CCN3CC(c4ccccc4)N=C23)cc1 (stereo not drawn) [Example 2, 2,5,6,7-Tetrahydro-2-phenyl-7-phenyl-thio-3H-pyrrolo[1,2-a]imidazole hydrochloride]
- change in vivo at 6.25 mg/kg [1]: 29%

Compound: COc1ccc(CSC2CCN3CC(c4ccccc4)N=C23)cc1 (stereo not drawn) [Example 3, 2,5,6,7-Tetrahydro-2-phenyl-7-p-methoxybenzylthio-3H-pyrrolo[1,2-a]imidazole hydrochloride]
- Percent Inhibition (-) or Enhancement (+) of migration (murine marcophage cells; 10^-5 m): -94.9%
- Percent Inhibition (-) or Enhancement (+) of migration (murine marcophage cells; 10^-7 m): -64.5%
- Percent Inhibition (-) or Enhancement (+) of migration (murine marcophage cells; 10^-8 m): -43.0%
- Percent Inhibition (-) or Enhancement (+) of migration (murine marcophage cells; 10^-9 m): -29.2%
- change in vivo at 6.25 mg/kg [1]: 108%

Compound: CCCCSC1CCN2CC(c3ccccc3)N=C12 (stereo not drawn) [Example 7, 2,5,6,7-Tetrahydro-2-phenyl-7-n-butylthio-3H-pyrrolo[1,2-a]imidazole hydrochloride]
- change in vivo at 6.25 mg/kg [1]: -49%

Compound: COc1ccc(C2CN3CCC(Sc4ccccc4)C3=N2)cc1 (stereo not drawn) [Example 8, 2,5,6,7-Tetrahydro-2-p-methoxyphenyl-7-phenylthio-3H-pyrrolo[1,2-a]imidazole hydrochloride]
- percent change from control (i.e., without 6MP) [1]: -36%

Compound: CSC1CCCN2CC(c3ccccc3)N=C12 (stereo not drawn) [Example 10, 2,3,5,6,7,8-Hexahydro-2-phenyl-8-methylthioimidazo[1,2-a]pyridine hydrochloride]
- Percent Inhibition (-) or Enhancement (+) of migration (murine marcophage cells; 10^-5 m): -94.1%
- Percent Inhibition (-) or Enhancement (+) of migration (murine marcophage cells; 10^-7 m): -94.4%
- Percent Inhibition (-) or Enhancement (+) of migration (murine marcophage cells; 10^-8 m): -88.4%
- Percent Inhibition (-) or Enhancement (+) of migration (murine marcophage cells; 10^-9 m): -91.7%
- Percent Inhibition (-) or Enhancement (+) of migration (murine marcophage cells; 10^-10 m): -97.4%
- Percent Inhibition (-) or Enhancement (+) of migration (murine marcophage cells; 10^-11 m): -97.3%
- change in vivo at 6.25 mg/kg [1]: 55%

Compound: c1ccc(SC2CCCN3CC(c4ccccc4)N=C23)cc1 (stereo not drawn) [Example 11, 2,3,5,6,7,8-Hexahydro-2-phenyl-8-phenylthioimidazo[1,2-a]pyridine sulfate (1:1) salt]
- change in vivo at 6.25 mg/kg [1]: 125%
- restoration of the number of plaques ([1]; with 6-MP): greater than 100%
- Mean Liver Score (mouse hepatitis virus; 6.25 mg/Kg i.p., control 2.6): 2.0
- Percent Survival (mouse hepatitis virus; 6.25 mg/Kg i.p., control 5%): 10%
- Mean Liver Score (mouse hepatitis virus; [3]): 1.8
- Percent Survival (mouse hepatitis virus; [4]): 40%
- Mean Liver Score (mouse hepatitis virus; [5]): 1.8
- Percent Survival (mouse hepatitis virus; [6]): 40%

Compound: Cc1ccc(SC2CCCN3CC(c4ccccc4)N=C23)cc1 (stereo not drawn) [Example 12, 2,3,5,6,7,8-Hexahydro-2-phenyl-8-p-tolylthioimidazo[1,2-a]pyridine sulfate (1:1) salt]
- change in vivo at 6.25 mg/kg [1]: 50%

Compound: Clc1ccc(SC2CCCN3CC(c4ccccc4)N=C23)cc1 (stereo not drawn) [Example 13, 2,3,5,6,7,8-Hexahydro-2-phenyl-8-p-chlorophenylthioimidazo[1,2-a]pyridine sulfate (1:1) salt]
- change in vivo at 6.25 mg/kg [1]: 103%

Compound: c1ccc(CSC2CCCN3CC(c4ccccc4)N=C23)cc1 (stereo not drawn) [Example 14, 2,3,5,6,7,8-Hexahydro-2-phenyl-8-benzylthioimidazo[1,2-a]pyridine fumarate (1:1) salt]
- Percent Inhibition (-) or Enhancement (+) of migration (murine marcophage cells; 10^-5 m): -29.1%
- Percent Inhibition (-) or Enhancement (+) of migration (murine marcophage cells; 10^-7 m): -51.0%
- Percent Inhibition (-) or Enhancement (+) of migration (murine marcophage cells; 10^-8 m): -51.0%
- Percent Inhibition (-) or Enhancement (+) of migration (murine marcophage cells; 10^-9 m): -50.7%
- Percent Inhibition (-) or Enhancement (+) of migration (murine marcophage cells; 10^-10 m): -10.2%
- Percent Inhibition (-) or Enhancement (+) of migration (murine marcophage cells; 10^-11 m): -44.5%

Compound: COc1ccc(CSC2CCCN3CC(c4ccccc4)N=C23)cc1 (stereo not drawn) [Example 15, 2,3,5,6,7,8-Hexahydro-2-phenyl-8-p-methoxybenzylthioimidazo[1,2-a]pyridinefumarate (1:1) salt]
- Percent Inhibition (-) or Enhancement (+) of migration (murine marcophage cells; 10^-5 m): +2.6%
- Percent Inhibition (-) or Enhancement (+) of migration (murine marcophage cells; 10^-7 m): +30.1%
- Percent Inhibition (-) or Enhancement (+) of migration (murine marcophage cells; 10^-8 m): +35.6%
- Percent Inhibition (-) or Enhancement (+) of migration (murine marcophage cells; 10^-9 m): +31.8%
- Percent Inhibition (-) or Enhancement (+) of migration (murine marcophage cells; 10^-10 m): +33.8%
- Percent Inhibition (-) or Enhancement (+) of migration (murine marcophage cells; 10^-11 m): -1.2%
- activation at 0.01 µM (murine marcophage cells; Mus musculus, Macrophage, 10^-8 molar concentration, read-out: stimulates migration): 35.6%
- change in vivo at 6.25 mg/kg [1]: 54%

Compound: CSC1(SC)CCCN2CC(c3ccccc3)N=C21 (stereo not drawn) [Example 16, 2,3,5,6,7,8-Hexahydro-2-phenyl-8,8-di(methylthio)imidazo[1,2-a]pyridine hydrochloride]
- change in vivo at 6.25 mg/kg [1]: -25%
- Mean Liver Score (mouse hepatitis virus; 6.25 mg/Kg i.p., control 2.6): 1.5
- Percent Survival (mouse hepatitis virus; 6.25 mg/Kg i.p., control 5%): 60%
- Mean Liver Score (mouse hepatitis virus; [3]): 2.0
- Percent Survival (mouse hepatitis virus; [4]): 90%

Compound: c1ccc(SC2(Sc3ccccc3)CCCN3CC(c4ccccc4)N=C32)cc1 (stereo not drawn) [Example 17, 2,3,5,6,7,8-Hexahydro-2-phenyl-8,8-di(phenylthio)imidazo[1,2-a]pyridine fumarate]
- Percent Inhibition of carrageenan induced edema [2]: 38.6%
- percent change from control (i.e., without 6MP) [1]: -37%

Compound: CC(C)SC1CCCN2CC(c3ccccc3)N=C12 (stereo not drawn) [Example 18, 2,3,5,6,7,8-Hexahydro-2-phenyl-8-i-propylthioimidazo[1,2-a]pyridine sulfate]
- Percent Inhibition of carrageenan induced edema [2]: 40.4%
- change in vivo at 6.25 mg/kg [1]: 97%

Compound: COC1(OC)CCN2CC(c3ccccc3)N=C21 (stereo not drawn) [Example 25, 2,5,6,7-Tetrahydro-2-phenyl-7,7-dimethoxy-3H-pyrrolo[1,2-a]imidazole sulfate]
- Mean Liver Score (mouse hepatitis virus; [3]): 2.6
- Percent Survival (mouse hepatitis virus; [4]): 0%
- Mean Liver Score (mouse hepatitis virus; [5]): 1.1
- Percent Survival (mouse hepatitis virus; [6]): 0%
- Mean Liver Score (mouse hepatitis virus; 50 mg/Kg i.p., control 3.4): 1.2
- Percent Survival (mouse hepatitis virus; 50 mg/Kg i.p., control 6%): 0%

Compound: COC1(OC)CCCN2C1=NCC2c1ccccc1 (stereo not drawn) [Example 26, 2,3,5,6,7,8-Hexahydro-3-phenyl-8,8-dimethoxy imidazo[1,2-a]pyridine hydrochloride]
- Mean Liver Score (mouse hepatitis virus; [3]): 2.7
- Percent Survival (mouse hepatitis virus; [4]): 0%
- Mean Liver Score (mouse hepatitis virus; [5]): 2.3
- Percent Survival (mouse hepatitis virus; [6]): 0%

Compound: [O-][S+](c1ccccc1)C1CCCN2CC(c3ccccc3)N=C12 (stereo not drawn) [Example 28, 2,3,5,6,7,8-Hexahydro-2-phenyl-8-phenylsulfinylimidazo[1,2-a]pyridine sulfate]
- change in vivo at 6.25 mg/kg [1]: -24%
- further suppression of the number of plaques ([1]; with 6-MP): about 24%

Compound: c1ccc(SC2(Sc3ccccc3)CCCn3cc(-c4ccccc4)nc32)cc1 [Example 33, 5,6,7,8-Tetrahydro-2-phenyl-8,8-diphenylthio imidazo[1,2-a]pyridine]
- change in vivo at 6.25 mg/kg [1]: 25%
